{"source": "patent US9320737B2", "about": "“Substituted imidazopyridazines” (Bayer Intellectual Property GmbH, priority 2011, dated 2016)", "target": "human full-length MKNK1 (Homo sapiens (Human), UniProt Q9BUB5, T344D)", "sequence (Q9BUB5 other isoform, or with tags, fused parts or gaps T344D)": "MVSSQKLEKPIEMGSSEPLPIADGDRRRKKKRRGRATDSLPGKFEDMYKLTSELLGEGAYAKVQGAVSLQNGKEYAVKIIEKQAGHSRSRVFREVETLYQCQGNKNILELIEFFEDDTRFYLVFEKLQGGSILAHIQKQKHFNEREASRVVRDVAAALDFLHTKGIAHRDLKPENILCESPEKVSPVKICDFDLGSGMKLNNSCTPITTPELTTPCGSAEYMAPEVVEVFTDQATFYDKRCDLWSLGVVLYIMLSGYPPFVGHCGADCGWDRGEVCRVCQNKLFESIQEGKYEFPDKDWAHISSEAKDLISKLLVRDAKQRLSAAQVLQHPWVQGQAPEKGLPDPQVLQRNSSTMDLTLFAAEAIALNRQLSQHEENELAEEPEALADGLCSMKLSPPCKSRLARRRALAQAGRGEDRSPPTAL", "assay": "MKNK1 kinase assay (MKNK1 TR-FRET assay)", "type": "biochemical", "conditions": "GST-MKNK1 (T344D), 10 μM ATP, average or median values", "method": "MKNK1-inhibitory activity of compounds of the present invention was quantified employing the MKNK1 TR-FRET assay as described in the following paragraphs.\nAs substrate for the kinase reaction the biotinylated peptide biotin-Ahx-[…] (C-terminus in amide form) was used which can be purchased e.g. form the company Biosyntan (Berlin-Buch, Germany).\nFor the assay […] of a 100 fold concentrated solution of the test compound in DMSO was pipetted into a black low volume 384 well microtiter plate (Greiner Bio-One, Frickenhausen, Germany), 2 μL of a solution of MKNK1 in aqueous assay buffer [50 mM HEPES pH 7.5, 5 mM magnesium chloride, 1.0 mM dithiothreitol, 0.005% (v/v) Nonidet-P40 (Sigma)] was added and the mixture was incubated for 15 min at 22° C. to allow pre-binding of the test compounds to the enzyme before the start of the kinase reaction. Then the kinase reaction was started by the addition of 3 μL of a solution of adenosine-tri-phosphate (ATP, 16.7 μM=>final conc. in the 5 μL assay volume is 10 μM) and substrate (0.1 μM=>final conc. in the 5 μL assay volume is 0.06 μM) in assay buffer and the resulting mixture was incubated for a reaction time of 45 min at 22° C. The concentration of MKNK1 was adjusted depending of the activity of the enzyme lot and was chosen appropriate to have the assay in the linear range, typical concentrations were in the range of 0.05 μg/ml. The reaction was stopped by the addition of 5 μL of a solution of TR-FRET detection reagents (5 nM streptavidine-XL665 [Cisbio Bioassays, Codolet, France] and 1 nM anti-ribosomal protein S6 (pSer236)-antibody from Invitrogen [#44921G] and 1 nM LANCE EU-W1024 labeled ProteinG [Perkin-Elmer, product no. AD0071]) in an aqueous EDTA-solution (100 mM EDTA, 0.1% (w/v) bovine serum albumin in 50 mM HEPES pH 7.5).\nThe resulting mixture was incubated for 1 h at 22° C. to allow the formation of complex between the phosphorylated biotinylated peptide and the detection reagents. Subsequently the amount of phosphorylated substrate was evaluated by measurement of the resonance energy transfer from the Eu-chelate to the streptavidine-XL. Therefore, the fluorescence emissions at 620 nm and 665 nm after excitation at 350 nm were measured in a TR-FRET reader, e.g. a Rubystar (BMG Labtechnologies, Offenburg, Germany) or a Viewlux (Perkin-Elmer). The ratio of the emissions at 665 nm and at 622 nm was taken as the measure for the amount of phosphorylated substrate.", "data": [{"molecule": "CS(=O)(=O)CCCOc1ccc2ncc(-c3cc4c(F)cccc4o3)n2n1", "note": "[Example III.9, 3-(4-Fluoro-1-benzofuran-2-yl)-6-[3-(methylsulfonyl)propoxy]imidazo[1,2-b]pyridazine]", "values": [{"measurement": "IC50", "value": 17, "unit": "nM"}]}, {"molecule": "CS(=O)(=O)CCCOc1ccc2ncc(-c3cc4cnccc4o3)n2n1", "note": "[III.13, 3-(Furo[3,2-c]pyridin-2-yl)-6-[3-(methylsulfonyl)propoxy]imidazo[1,2-b]-pyridazine]", "values": [{"measurement": "IC50", "value": 28, "unit": "nM"}]}, {"molecule": "CS(=O)(=O)CCCOc1nn2c(-c3cc4ccccc4o3)cnc2cc1-c1ccccc1", "note": "[Example III.11, 3-(1-Benzofuran-2-yl)-6-[3-(methylsulfonyl)propoxy]-7-phenylimidazo[1,2-b]-pyridazine]", "values": [{"measurement": "IC50", "value": 17, "unit": "nM"}]}, {"molecule": "CS(=O)(=O)CCCOc1ccc2ncc(-c3cc4cccc(F)c4o3)n2n1", "note": "[Example III.6, 3-(7-Fluoro-1-benzofuran-2-yl)-6-[3-(methylsulfonyl)propoxy]imidazo[1,2-b]pyridazine]", "values": [{"measurement": "IC50", "value": 48, "unit": "nM"}]}, {"molecule": "CSCCCOc1ccc2ncc(-c3cc4ccccc4o3)n2n1", "note": "[Example I.2, 3-(1-Benzofuran-2-yl)-6-[3-(methylsulfanyl)propoxy]imidazo[1,2-b]pyridazine]", "values": [{"measurement": "IC50", "value": 11, "unit": "nM"}]}, {"molecule": "CS(=N)(=O)CCCOc1ccc2ncc(-c3cc4ccccc4o3)n2n1", "note": "(stereo not shown) [Example IV.4, 3-(1-Benzofuran-2-yl)-6-[3-(S-methylsulfonimidoyl)propoxy]imidazo[1,2-b]pyridazine]", "values": [{"measurement": "IC50", "value": 4, "unit": "nM"}]}, {"molecule": "COc1nccc2oc(-c3cnc4ccc(OCCCS(C)(=O)=NC#N)nn34)cc12", "note": "(stereo not shown) [Example IV.9, [(3-{[3-(4-Methoxyfuro[3,2-c]pyridin-2-yl)imidazo[1,2-b]pyridazin-6-yl]oxy}propyl)(methyl)oxido-lambda^6-sulfanylidene]cyanamide]", "values": [{"measurement": "IC50", "value": 9, "unit": "nM"}]}, {"molecule": "COc1nccc2oc(-c3cnc4ccc(OCCCS(C)(=O)=O)nn34)cc12", "note": "[Example III.12, 3-(4-Methoxyfuro[3,2-c]pyridin-2-yl)-6-[3-(methylsulfonyl)propoxy]-imidazo-[1,2-b]pyridazine]", "values": [{"measurement": "IC50", "value": 12, "unit": "nM"}]}, {"molecule": "CS(=O)(=O)CCCOc1ccc2ncc(-c3cc4ccccc4o3)n2n1", "note": "[Example III.1, 3-(1-Benzofuran-2-yl)-6-[3-(methylsulfonyl)propoxy]imidazo[1,2-b]pyridazine]", "values": [{"measurement": "IC50", "value": 5, "unit": "nM"}]}, {"molecule": "CSCCCCOc1ccc2ncc(-c3cc4ccccc4o3)n2n1", "note": "[Example I.3, 3-(1-Benzofuran-2-yl)-6-[4-(methylsulfanyl)butoxy]imidazo[1,2-b]pyridazine]", "values": [{"measurement": "IC50", "value": 27, "unit": "nM"}]}, {"molecule": "CS(=O)(CCCCOc1ccc2ncc(-c3cc4ccccc4o3)n2n1)=NC(=O)C(F)(F)F", "note": "(stereo not shown) [Example IV.5, N-[(4-{[3-(1-Benzofuran-2-yl)imidazo[1,2-b]pyridazin-6-yl]oxy}butyl)(methyl)oxido-lambda^6-sulfanylidene]-2,2,2-trifluoroacetamide]", "values": [{"measurement": "IC50", "value": 15, "unit": "nM"}]}, {"molecule": "C[S+]([O-])CCCOc1ccc2ncc(-c3cc4ccccc4o3)n2n1", "note": "(stereo not shown) [Example II.2, 3-(1-Benzofuran-2-yl)-6-[3-(methylsulfinyl)propoxy]imidazo[1,2-b]pyridazine]", "values": [{"measurement": "IC50", "value": 4, "unit": "nM"}]}, {"molecule": "Cc1cccc2cc(-c3cnc4ccc(OCCCS(C)(=O)=O)nn34)oc12", "note": "[Example III.8, 3-(7-Methyl-1-benzofuran-2-yl)-6-[3-(methylsulfonyl)propoxy]imidazo[1,2-b]pyridazine]", "values": [{"measurement": "IC50", "value": 70, "unit": "nM"}]}, {"molecule": "COc1ccc2oc(-c3cnc4ccc(OCCCS(C)(=O)=O)nn34)cc2c1", "note": "[Example III.2, 3-(5-Methoxy-1-benzofuran-2-yl)-6-[3-(methylsulfonyl)propoxy]imidazo[1,2-b]pyridazine]", "values": [{"measurement": "IC50", "value": 5, "unit": "nM"}]}, {"molecule": "COc1cccc2oc(-c3cnc4ccc(OCCCSC)nn34)cc12", "note": "[Example I.1, 3-(4-Methoxy-1-benzofuran-2-yl)-6-[3-(methylsulfanyl)propoxy]imidazo[1,2-b]-pyridazine]", "values": [{"measurement": "IC50", "value": 21, "unit": "nM"}]}, {"molecule": "COc1cccc2oc(-c3cnc4ccc(OCCCS(C)(=O)=O)nn34)cc12", "note": "[Example III.3, 3-(4-Methoxy-1-benzofuran-2-yl)-6-[3-(methylsulfonyl)propoxy]imidazo[1,2-b]pyridazine]", "values": [{"measurement": "IC50", "value": 2, "unit": "nM"}]}, {"molecule": "CS(=O)(CCCOc1ccc2ncc(-c3cc4ccccc4o3)n2n1)=NC#N", "note": "(stereo not shown) [Example IV.8, [(3-{[3-(1-Benzofuran-2-yl)imidazo[1,2-b]pyridazin-6-yl]oxy}propyl)(methyl)oxido-lambda^6-sulfanylidene]cyanamide]", "values": [{"measurement": "IC50", "value": 7, "unit": "nM"}]}, {"molecule": "CS(=O)(=O)CCCOc1ccc2ncc(-c3cc4cc(F)ccc4o3)n2n1", "note": "[Example III.4, 3-(5-Fluoro-1-benzofuran-2-yl)-6-[3-(methylsulfonyl)propoxy]imidazo[1,2-b]pyridazine]", "values": [{"measurement": "IC50", "value": 7, "unit": "nM"}]}, {"molecule": "Cc1c(-c2cnc3ccc(OCCCS(C)(=O)=O)nn23)oc2ccccc12", "note": "[Example III.7, 3-(3-Methyl-1-benzofuran-2-yl)-6-[3-(methylsulfonyl)propoxy]imidazo[1,2-b]pyridazine]", "values": [{"measurement": "IC50", "value": 61, "unit": "nM"}]}, {"molecule": "CS(=O)(=O)CCCOc1ccc2ncc(-c3cc4cc(Cl)ccc4o3)n2n1", "note": "[Example III.5, 3-(5-Chloro-1-benzofuran-2-yl)-6-[3-(methylsulfonyl)propoxy]imidazo[1,2-b]pyridazine]", "values": [{"measurement": "IC50", "value": 15, "unit": "nM"}]}, {"molecule": "CSCCOc1ccc2ncc(-c3cc4ccccc4o3)n2n1", "note": "[Example I.4, 3-(1-Benzofuran-2-yl)-6-[2-(methylsulfanyl)ethoxy]imidazo[1,2-b]pyridazine]", "values": [{"measurement": "IC50", "value": 16, "unit": "nM"}]}, {"molecule": "COc1nccc2oc(-c3cnc4ccc(OCCCS(C)(=N)=O)nn34)cc12", "note": "(stereo not shown) [Example IV.10, 3-(4-Methoxyfuro[3,2-c]pyridin-2-yl)-6-[3-(S-methylsulfonimidoyl)propoxy]-imidazo[1,2-b]pyridazine]", "values": [{"measurement": "IC50", "value": 9, "unit": "nM"}]}, {"molecule": "COc1cccc2oc(-c3cnc4ccc(OCCCS(C)(=O)=NC(=O)C(F)(F)F)nn34)cc12", "note": "(stereo not shown) [Example IV.1, 2,2,2-Trifluoro-N-[(3-{[3-(4-methoxy-1-benzofuran-2-yl)imidazo[1,2-b]pyridazin-6-yl]oxy}propyl)(methyl)oxido-lambda^6-sulfanylidene]acetamide]", "values": [{"measurement": "IC50", "value": 9, "unit": "nM"}]}, {"molecule": "C[S+]([O-])CCCCOc1ccc2ncc(-c3cc4ccccc4o3)n2n1", "note": "(stereo not shown) [Example II.3, 3-(1-Benzofuran-2-yl)-6-[4-(methylsulfinyl)butoxy]imidazo[1,2-b]pyridazine]", "values": [{"measurement": "IC50", "value": 5, "unit": "nM"}]}, {"molecule": "Cc1cc2ncc(-c3cc4ccccc4o3)n2nc1OCCCS(C)(=O)=O", "note": "[Example III.10, 3-(1-Benzofuran-2-yl)-7-methyl-6-[3-(methylsulfonyl)propoxy]imidazo[1,2-b]-pyridazine]", "values": [{"measurement": "IC50", "value": 11, "unit": "nM"}]}, {"molecule": "CS(=O)(CCOc1ccc2ncc(-c3cc4ccccc4o3)n2n1)=NC(=O)C(F)(F)F", "note": "(stereo not shown) [Example IV.7, N-[(2-{[3-(1-Benzofuran-2-yl)imidazo[1,2-b]pyridazin-6-yl]oxy}ethyl)(methyl)oxido-lambda^6-sulfanylidene]-2,2,2-trifluoroacetamide]", "values": [{"measurement": "IC50", "value": 47, "unit": "nM"}]}, {"molecule": "COc1cccc2oc(-c3cnc4ccc(OCCC[S+](C)[O-])nn34)cc12", "note": "(stereo not shown) [Example II.1, 3-(4-Methoxy-1-benzofuran-2-yl)-6-[3-(methylsulfinyl)propoxy]imidazo[1,2-b]pyridazine]", "values": [{"measurement": "IC50", "value": 2, "unit": "nM"}]}, {"molecule": "CS(=O)(=O)CCCOc1ccc2ncc(-c3cc4ncccc4o3)n2n1", "note": "[Example III.14, 3-(Furo[3,2-b]pyridin-2-yl)-6-[3-(methylsulfonyl)propoxy]imidazo[1,2-b]pyridazine]", "values": [{"measurement": "IC50", "value": 60, "unit": "nM"}]}]}
